Results on 23 compounds are retold here after patent publication US8859584B2, “TRPV1 antagonists” (AbbVie Inc., priority 2011, dated 2014).

Like-named read-outs stand apart in the source and are kept apart here.

For assay [1], the target named is T1, human TRPV1 (Homo sapiens, UniProt Q8NER1).
T1 construct: expressed in transfected cells
Briefly: Capsaicin Activation Assay (FLIPR intracellular Ca2+, recombinant HEK293 cells). The assay is classed as cell-based.

The target in assay [2] is T1, human TRPV1. Briefly: Acid Activation Assay (pH 5.0, FLIPR intracellular Ca2+, recombinant HEK293 cells). The assay is classed as cell-based. Conditions: percentage of maximal pH 5.0-induced response remaining; HEK293 hTRPV1; max concentration 37.5 μM. A digest of the protocol: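 HEK293 cells stably expressing recombinant hTRPV1 were loaded with calcium dye for 90-120 min at 25° C and pre-treated with compound for 3 min before a pH 5.0 (DPBS/MES) challenge. Peak FLIPR fluorescence over baseline is given as percentage of the maximal pH 5.0-induced response.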

Assay [3] relates to rats. Briefly: Sodium Iodoacetate-Induced Knee Joint Osteoarthritic Pain Model (hind limb grip force). The assay is classed as in vivo. The settings on record: rat, 1 hour after administration, 20 days after sodium iodoacetate, read-out: % effect (% return to normalcy of hind limb grip force); for inhibition in vivo at 30 µmol/kg: 30 μmol/kg po single dose. On the procedure:
(v) Sodium Iodoacetate-Induced Knee Joint Osteoarthritic Pain Model
Unilateral knee joint osteoarthritis was induced in the rats by a single intra-articular (i.a.) injection of sodium iodoacetate (3 mg in 0.05 mL sterile isotonic saline) into the right knee joint cavity under light isoflurane anesthesia using a 26G needle. […] Pain behavioral assessment of hind limb grip force was conducted by recording the maximum compressive force exerted on the hind limb strain gauge setup, in a commercially available grip force measurement system (Columbus Instruments, Columbus, Ohio). The grip force data was converted to a maximum hindlimb cumulative compressive force (CFmax) (gram force)/kg body weight for each animal. The analgesic effects of test compounds were determined 20 days following the i.a. injection of sodium iodoacetate. The vehicle control group for each compound being tested was assigned 0% whereas the age matched naïve group was assigned as being 100% (normal). The % effect for each dose group was then expressed as % return to normalcy compared to the naïve group. Test compounds were administered orally in 10% ethanol/20% Tween 80/70% polyethylene glycol-400 vehicle at a volume of 2 mL/kg. The assessment of the analgesic effects of test compounds was made 1 hour following oral administration. The assessment of the analgesic effects of test compounds can be made following a single dose or following repeated administration wherein the frequency of dosing is 1 to 2 times daily. The duration of such repeated daily dosing may last for any time greater than one day. A typical duration of repeated daily dosing is about 5 days to about 12 days.

Setting [4] is: recombinant HEK293 cells expressing hTRPV1, 50 nM capsaicin, read-out: human TRPV1 capsaicin IC50.

T1 sequence (Q8NER1 whole entry): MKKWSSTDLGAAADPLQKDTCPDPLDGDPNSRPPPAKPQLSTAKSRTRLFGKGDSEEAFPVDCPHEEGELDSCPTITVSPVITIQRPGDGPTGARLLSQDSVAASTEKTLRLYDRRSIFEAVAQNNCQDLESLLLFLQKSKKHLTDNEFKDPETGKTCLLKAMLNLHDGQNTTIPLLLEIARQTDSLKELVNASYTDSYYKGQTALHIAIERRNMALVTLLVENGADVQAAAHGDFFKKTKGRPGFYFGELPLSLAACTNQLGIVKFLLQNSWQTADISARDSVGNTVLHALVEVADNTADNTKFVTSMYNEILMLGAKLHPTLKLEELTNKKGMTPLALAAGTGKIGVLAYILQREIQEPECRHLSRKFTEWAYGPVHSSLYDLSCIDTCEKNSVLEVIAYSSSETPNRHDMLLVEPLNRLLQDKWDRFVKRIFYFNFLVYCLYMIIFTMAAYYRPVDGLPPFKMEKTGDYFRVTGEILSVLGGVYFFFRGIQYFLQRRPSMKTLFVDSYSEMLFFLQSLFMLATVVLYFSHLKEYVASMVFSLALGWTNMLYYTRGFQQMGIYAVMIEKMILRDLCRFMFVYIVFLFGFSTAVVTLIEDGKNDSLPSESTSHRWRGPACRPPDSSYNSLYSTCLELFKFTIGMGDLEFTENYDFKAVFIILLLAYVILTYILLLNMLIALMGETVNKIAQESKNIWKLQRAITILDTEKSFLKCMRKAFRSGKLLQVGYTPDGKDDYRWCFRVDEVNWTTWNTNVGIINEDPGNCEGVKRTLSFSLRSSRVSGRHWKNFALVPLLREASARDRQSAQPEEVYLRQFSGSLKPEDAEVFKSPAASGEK

For the compound `CC1(C)C[C@@H](NC(=O)Nc2cccc3c2C[C@H](O)C3)c2ccc(Cl)cc2O1` [Example 13, 1-[(4R)-7-chloro-2,2-dimethyl-3,4-dihydro-2H-chromen-4-yl]-3-[(2R)-2-hydroxy-2,3-dihydro-1H-inden-4-yl]urea], the IC50 in assay [1] (setting [4]) was 28 nM. For the same compound, the “human TRPV1 H+ (max % remain)” value in assay [2] is recorded as 62%. The inhibition in vivo at 30 µmol/kg in assay [3] amounted to 52%.

Take `O=C(Nc1cccc2c1C[C@H](O)C2)N[C@@H]1CCc2cc(C(F)(F)F)ccc21` [Example 40, 1-[(2R)-2-hydroxy-2,3-dihydro-1H-inden-4-yl]-3-[(1R)-5-(trifluoromethyl)-2,3-dihydro-1H-inden-1-yl]urea]: the IC50 in assay [1] (setting [4]) was found to be 7 nM. The “human TRPV1 H+ (max % remain)” value in assay [2] is 30%. The inhibition in vivo at 30 µmol/kg in assay [3] stood at 57%.

As to `O=C(Nc1cccc2c1C[C@H](O)C2)N[C@@H]1CCOc2cc(OC(F)(F)F)ccc21` [Example 14, 1-[(2R)-2-hydroxy-2,3-dihydro-1H-inden-4-yl]-3-[(4R)-7-(trifluoromethoxy)-3,4-dihydro-2H-chromen-4-yl]urea], the IC50 in assay [1] (setting [4]) was found to be 44 nM. In assay [2], the “human TRPV1 H+ (max % remain)” value is recorded as 48%. In addition, the inhibition in vivo at 30 µmol/kg in assay [3] came out at 54%.

On to `C[C@]1(CF)C[C@@H](NC(=O)Nc2cccc3c2C[C@H](O)C3)c2ccc(C(F)(F)F)cc2O1` [Example 43, 1-[(2R,4R)-2-(fluoromethyl)-2-methyl-7-(trifluoromethyl)-3,4-dihydro-2H-chromen-4-yl]-3-[(2R)-2-hydroxy-2,3-dihydro-1H-inden-4-yl]urea], for which the IC50 in assay [1] (setting [4]) amounted to 18 nM. In addition, the “human TRPV1 H+ (max % remain)” value in assay [2] came out at 48%. Moreover, in assay [3], the inhibition in vivo at 30 µmol/kg stood at 38%.

As for `C[C@]1(CF)C[C@@H](NC(=O)Nc2cccc3c2C[C@H](O)C3)c2ccc(Cl)cc2O1` [Example 15, 1-[(2R,4R)-7-chloro-2-(fluoromethyl)-2-methyl-3,4-dihydro-2H-chromen-4-yl]-3-[(2R)-2-hydroxy-2,3-dihydro-1H-inden-4-yl]urea], the IC50 in assay [1] (setting [4]) came out at 60 nM. Moreover, the “human TRPV1 H+ (max % remain)” value in assay [2] is recorded as 63%.

For `CC(C)(C)c1ccc2c(c1)CC[C@H]2NC(=O)Nc1cccc2c1C[C@H](O)C2` [Example 50, 1-[(1R)-5-tert-butyl-2,3-dihydro-1H-inden-1-yl]-3-[(2R)-2-hydroxy-2,3-dihydro-1H-inden-4-yl]urea], the IC50 in assay [1] (setting [4]) came out at 32 nM. In addition, in assay [2], the “human TRPV1 H+ (max % remain)” value is listed as 69%.

Take `C[C@]1(CF)C[C@@H](NC(=O)Nc2ccc3c(c2)C(O)C3)c2ccccc2O1` (stereo partly drawn) [Example 132, 1-[(2R,4R)-2-(fluoromethyl)-2-methyl-3,4-dihydro-2H-chromen-4-yl]-3-(8-hydroxybicyclo[4.2.0]octa-1,3,5-trien-3-yl)urea]: the IC50 in assay [1] (setting [4]) is 31000 nM. For the same compound, the “human TRPV1 H+ (max % remain)” value in assay [2] came to 95%.

Regarding `CC1(C)C[C@H](NC(=O)Nc2cccc3c2C[C@@H](O)C3)c2cc(F)ccc2O1` [Example 103, 1-[(4S)-6-fluoro-2,2-dimethyl-3,4-dihydro-2H-chromen-4-yl]-3-[(2S)-2-hydroxy-2,3-dihydro-1H-inden-4-yl]urea], the IC50 in assay [1] (setting [4]) is 28000 nM. Also, in assay [2], the “human TRPV1 H+ (max % remain)” value is listed as 99%.

With `O=C(Nc1ccc(F)c2c1C[C@H](O)C2)N[C@@H]1CC(CF)(CF)Oc2ccccc21` [Example 151, 1-[(4R)-2,2-bis(fluoromethyl)-3,4-dihydro-2H-chromen-4-yl]-3-[(2S)-7-fluoro-2-hydroxy-2,3-dihydro-1H-inden-4-yl]urea], in assay [1] (setting [4]), the IC50 turned out to be 6600 nM. Besides, the “human TRPV1 H+ (max % remain)” value in assay [2] is 6%.

In the case of `CC1(C)C[C@@H](NC(=O)Nc2cccc3c2C[C@H](O)C3)c2ccc(C(F)(F)F)nc2O1` [Example 105, 1-[(4R)-2,2-dimethyl-7-(trifluoromethyl)-3,4-dihydro-2H-pyrano[2,3-b]pyridin-4-yl]-3-[(2R)-2-hydroxy-2,3-dihydro-1H-inden-4-yl]urea], the IC50 in assay [1] (setting [4]) worked out at 150 nM. Besides, the “human TRPV1 H+ (max % remain)” value in assay [2] was 39%.

Consider `CCC1(CC)C[C@@H](NC(=O)Nc2cccc3c2C[C@H](O)C3)c2ccc(Cl)c(Cl)c2O1` [Example 55, 1-[(4R)-7,8-dichloro-2,2-diethyl-3,4-dihydro-2H-chromen-4-yl]-3-[(2R)-2-hydroxy-2,3-dihydro-1H-inden-4-yl]urea], for which the IC50 in assay [1] (setting [4]) stood at 240 nM. For the same compound, the “human TRPV1 H+ (max % remain)” value in assay [2] is 72%.

With `CC1(C)C[C@@H](NC(=O)Nc2cccc3c2C[C@H](O)C3)c2ccc(F)cc2O1` [Example 5, 1-[(4R)-7-fluoro-2,2-dimethyl-3,4-dihydro-2H-chromen-4-yl]-3-[(2R)-2-hydroxy-2,3-dihydro-1H-inden-4-yl]urea], the IC50 in assay [1] (setting [4]) is 32 nM. In assay [2], the “human TRPV1 H+ (max % remain)” value was 76%. Besides, the inhibition in vivo at 100 µmol/kg in assay [3] (100 μmol/kg po single dose) came out at 57%.

Turning to `CC1(C)C[C@@H](NC(=O)Nc2cccc3c2C[C@@H](O)C3)c2ccc(Cl)cc2O1` [Example 85, 1-[(4R)-7-chloro-2,2-dimethyl-3,4-dihydro-2H-chromen-4-yl]-3-[(2S)-2-hydroxy-2,3-dihydro-1H-inden-4-yl]urea], the IC50 in assay [1] (setting [4]) worked out at 24 nM. The “human TRPV1 H+ (max % remain)” value in assay [2] is given as 12%.

Take `O=C(Nc1cccc2c1C[C@H](O)C2)N[C@@H]1CC(CF)(CF)Oc2cc(C(F)F)ccc21` [Example 130, 1-[(4R)-7-(difluoromethyl)-2,2-bis(fluoromethyl)-3,4-dihydro-2H-chromen-4-yl]-3-[(2R)-2-hydroxy-2,3-dihydro-1H-inden-4-yl]urea]: the IC50 in assay [1] (setting [4]) was 34000 nM. In addition, in assay [2], the “human TRPV1 H+ (max % remain)” value is reported as 85%.

Consider `O=C(Nc1ccc(F)c2c1C[C@@H](O)C2)N[C@@H]1CC(CF)(CF)Oc2ccc(F)cc21` [Example 161, 1-[(4R)-6-fluoro-2,2-bis(fluoromethyl)-3,4-dihydro-2H-chromen-4-yl]-3-[(2R)-7-fluoro-2-hydroxy-2,3-dihydro-1H-inden-4-yl]urea], for which, in assay [1] (setting [4]), the IC50 was 3900 nM. The “human TRPV1 H+ (max % remain)” value in assay [2] is reported as 47%.

Turning to `O=C(Nc1cccc2c1CC(O)C2)NC1c2ccccc2CC1Cc1ccccc1` (stereo not drawn) [Example 125, 1-(2-benzyl-2,3-dihydro-1H-inden-1-yl)-3-(2-hydroxy-2,3-dihydro-1H-inden-4-yl)urea], the IC50 in assay [1] (setting [4]) amounted to 3500 nM. In addition, in assay [2], the “human TRPV1 H+ (max % remain)” value is given as 83%.

With `O=C(Nc1ccc(F)c2c1C[C@@H](O)C2)N[C@@H]1CC(CF)(CF)Oc2cc(Cl)ccc21` [Example 133, 1-[(4R)-7-chloro-2,2-bis(fluoromethyl)-3,4-dihydro-2H-chromen-4-yl]-3-[(2R)-7-fluoro-2-hydroxy-2,3-dihydro-1H-inden-4-yl]urea], in assay [1], the IC50 was found to be 220 nM. The “human TRPV1 H+ (max % remain)” value in assay [2] turned out to be 36%.

With `O=C(Nc1cccc2c1C[C@H](O)C2)N[C@H]1CCOc2cc(OC(F)(F)F)ccc21` [Example 93, 1-[(2R)-2-hydroxy-2,3-dihydro-1H-inden-4-yl]-3-[(4S)-7-(trifluoromethoxy)-3,4-dihydro-2H-chromen-4-yl]urea], the IC50 in assay [1] (setting [4]) came out at 41000 nM. In assay [2], the “human TRPV1 H+ (max % remain)” value amounted to 57%.

For `O=C(Nc1c(F)ccc2c1C[C@@H](O)C2)N[C@@H]1CC(CF)(CF)Oc2cc(Cl)ccc21` [Example 176, 1-[(4R)-7-chloro-2,2-bis(fluoromethyl)-3,4-dihydro-2H-chromen-4-yl]-3-[(2S)-5-fluoro-2-hydroxy-2,3-dihydro-1H-inden-4-yl]urea], the IC50 in assay [1] (setting [4]) turned out to be 210 nM. In assay [2], the “human TRPV1 H+ (max % remain)” value was 4%.

As to `CC1(C)C[C@@H](NC(=O)Nc2cccc3c2C[C@@H](O)C3)c2cccc(F)c2O1` [Example 71, 1-[(4R)-8-fluoro-2,2-dimethyl-3,4-dihydro-2H-chromen-4-yl]-3-[(2S)-2-hydroxy-2,3-dihydro-1H-inden-4-yl]urea], the IC50 in assay [1] (setting [4]) worked out at 520 nM. In assay [2], the “human TRPV1 H+ (max % remain)” value was 52%.

Turning to `CC1(C)Oc2ccc(F)cc2CC1NC(=O)Nc1cccc2c1C[C@H](O)C2` (stereo partly drawn) [Example 91, 1-(6-fluoro-2,2-dimethyl-3,4-dihydro-2H-chromen-3-yl)-3-[(2R)-2-hydroxy-2,3-dihydro-1H-inden-4-yl]urea], in assay [1] (setting [4]), the IC50 came to 82 nM. The “human TRPV1 H+ (max % remain)” value in assay [2] was 78%.

Take `O=C(Nc1cccc2c1CC(O)C2)NC1CC2(CCCCC2)Oc2ccccc21` (stereo not drawn) [Example 123, 1-(3,4-dihydrospiro[chromene-2,1′-cyclohexan]-4-yl)-3-(2-hydroxy-2,3-dihydro-1H-inden-4-yl)urea]: the IC50 in assay [1] (setting [4]) worked out at 140 nM. The “human TRPV1 H+ (max % remain)” value in assay [2] stood at 61%.

In the case of `O=C(Nc1ccc(F)c2c1C[C@H](O)C2)N[C@@H]1CC(CF)(CF)Oc2c(F)cccc21` [Example 152, 1-[(4R)-8-fluoro-2,2-bis(fluoromethyl)-3,4-dihydro-2H-chromen-4-yl]-3-[(2S)-7-fluoro-2-hydroxy-2,3-dihydro-1H-inden-4-yl]urea], in assay [1] (setting [4]), the concentration for half-maximal inhibition (IC50) worked out at 5500 nM. Further, the “human TRPV1 H+ (max % remain)” value in assay [2] is recorded as 3%.

As a reminder, the IC50 is the concentration that inhibits the measured activity by half.
